Results: patent US20250296953A1, “3,4-THIAZOLO-STEROIDS AND METHODS OF MAKING AND USING THE SAME” (Arkansas State University - Jonesboro, priority 2018, published 2025)

Key:
Assay in all cases: Melanoma cytotoxicity assay (resazurin)
Format in all cases: cell-based
SK-MEL-28 = settings: for SK-MEL-28 (% inhibition): SK-MEL-28 melanoma cells, 24 hours with compound, resazurin, concentration not given; for SK-MEL-28 (% viability): human, 24 h
Protocol: (§1) Cytotoxicity Assay: Melanoma cells (˜4000 cells in each well) were incubated in a 96 well plates at 37° C. in 5% CO2 for 24 hours. Compounds were added in triplicates and the plate was further incubated for 24 hours. DMSO and dacarbazine were added as technical and positive controls respectively. Next day resazurin was added and the plate was further incubated for 6 hours followed by reading the plate at 544 nm (excitation) and 590 nm (emission) using BMG Labtech Fluostar Optima plate reader. IC50 values were determined by using Graphpad Prism.
(§2) On day 1, the cell line trypsinized and centrifuged to form cell pellet. The pellet was diluted in media, then counted using Countess automated cell counter. Approximately 4000 cells (198 uL) per well plated in […]. A control well of 200 uL growth media was also prepared. Wells closest to plate perimeter were filled with 200 uL PBS to prevent inner well evaporation. The 96 well plates are incubated in 37° C. incubator at 5% CO2 for 24 hours.
(§3) On day 2, compounds were added (in triplicate) along with DMSO/Dacarbazine controls (2 uL) added to bring wells to volume of 200 μL. The 96 well plates are incubated in 37° C. incubator at 5% CO2 for 24 hours.
(§4) On day 3, 40 μL of 0.15 mg/ml reszurin solution added to wells. Samples were placed in a 37° C. incubator at 5% CO2 for 6 hours. Excitation and emission for fluorescence measured at 544 nm and 590 nm using BMG Labtech Fluostar Optima plate reader
(§5) Percent viability determined by taking average of each triplicate well fluorescence and subtracting GM well reading to remove the background signal. This difference is then divided by the average of the negative control (DMSO) wells to determine percent viability.
(§6) IC50s were determined by using cereal dilution of compound to determine viability. Viabilities and concentration of cells are analyzed in Graphpad Prism by creating sigmoidal curve graph, which will determine the IC50 concentration.
(§7) We analyzed the ability of the thiazole-androstane derivatives to inhibit growth in various melanoma cell lines. The growth inhibition against melanoma cell lines of various compound is shown below in Tables 19 and 20. Inhibition results are reported as the IC50 concentration in μM of the indicated compound or as the percent viability […] of the indicated compound. NA=not available.

SK-MEL-25 = SK-MEL-25 melanoma cells, 24 hours with compound, resazurin; concentration not given
Protocol: as §1, §2, §3, §4, §5, §6, §7

SK-MEL-5 = SK-MEL-5 melanoma cells, 24 hours with compound, resazurin; concentration not given
Protocol: as §1, §2, §3, §4, §5, §6, §7

| SMILES | SK-MEL-28 (% inhibition) (SK-MEL-28) | SK-MEL-25 (% inhibition) (SK-MEL-25) | SK-MEL-5 (% inhibition) (SK-MEL-5) | SK-MEL-28 (% viability) (SK-MEL-28) |
| --- | --- | --- | --- | --- |
| C[C@]12CCc3sc(Nc4ccccc4F)nc3C1=CC[C@@H]1[C@@H]2CC[C@]2(C)C(=O)CC[C@@H]12 [IIa.33, (1S,2R,13R,14S,18S)-7-(2-fluoroanilino)-2,18-dimethyl-6-thia-8-azapentacyclo[11.7.0.02,10.05,9.014,18]icosa-5(9),7,10-trien-17-one] | 66% | 77% | 87% | – |
| C[C@]12CCc3sc(NCc4ccccc4)nc3C1=CC[C@@H]1[C@@H]2CC[C@]2(C)C(=O)CC[C@@H]12 [IIa.5, (1S,2R,13R,14S,18S)-7-(benzylamino)-2,18-dimethyl-6-thia-8-azapentacyclo[11.7.0.02,10.05,9.014,18]icosa-5(9),7,10-trien-17-one] | 97% | 6% | 46% | – |
| C[C@]12CC[C@H]3[C@@H](CC=C4c5sc(-c6ccc(O)c(O)c6)nc5CC[C@@]43C)[C@@H]1CC[C@@H]2O [III.7, 4-[(1S,2R,13R,14S,17S,18S)-17-hydroxy-2,18-dimethyl-8-thia-6-azapentacyclo[11.7.0.02,10.05,9.014,18]icosa-5(9),6,10-trien-7-yl]benzene-1,2-diol] | – | – | – | 11% |
| C[C@]12CC[C@H]3[C@@H](CC=C4c5sc(-c6ccccn6)nc5CC[C@@]43C)[C@@H]1CC[C@@H]2O [III.4, (1S,2R,13R,14S,17S,18S)-2,18-dimethyl-7-(2-pyridyl)-8-thia-6-azapentacyclo[11.7.0.02,10.05,9.014,18]icosa-5(9),6,10-trien-17-ol] | – | – | – | 86% |
| C[C@]12CC[C@H]3[C@@H](CC=C4c5sc(-c6ccc(Br)cc6)nc5CC[C@@]43C)[C@@H]1CC[C@@H]2O [III.19, (1S,2R,13R,14S,17S,18S)-7-(4-bromophenyl)-2,18-dimethyl-8-thia-6-azapentacyclo[11.7.0.02,10.05,9.014,18]icosa-5(9),6,10-trien-17-ol] | – | – | – | 58% |
| Cc1nc2c(s1)C1=CC[C@H]3[C@@H]4CC[C@H](O)[C@@]4(C)CC[C@@H]3[C@@]1(C)CC2 [III.1, (1S,2R,13R,14S,17S,18S)-2,7,18-trimethyl-8-thia-6-azapentacyclo[11.7.0.02,10.05,9.014,18]icosa-5(9),6,10-trien-17-ol] | – | – | – | 58% |
| C[C@]12CCc3sc(N)nc3C1=CC[C@@H]1[C@@H]2CC[C@]2(C)C(=O)CC[C@@H]12 [IIa.1, (1S,2R,13R,14S,18S)-7-amino-2,18-dimethyl-6-thia-8-azapentacyclo[11.7.0.02,10.05,9.014,18]icosa-5(9),7,10-trien-17-one] | 1% | – | 29% | – |
| C[C@]12CCc3sc(NCCCN4CCOCC4)nc3C1=CC[C@@H]1[C@@H]2CC[C@]2(C)C(=O)CC[C@@H]12 [IIa.4, (1S,2R,13R,14S,18S)-2,18-dimethyl-7-(3-morpholinopropylamino)-6-thia-8-azapentacyclo[11.7.0.02,10.05,9.014,18]icosa-5(9),7,10-trien-17-one] | – | 66% | 74% | – |
| C[C@]12CC[C@H]3[C@@H](CC=C4c5sc(-c6ccccc6O)nc5CC[C@@]43C)[C@@H]1CC[C@@H]2O [III.6, (1S,2R,13R,14S,17S,18S)-7-(2-hydroxyphenyl)-2,18-dimethyl-8-thia-6-azapentacyclo[11.7.0.02,10.05,9.014,18]icosa-5(9),6,10-trien-17-ol] | – | – | – | 32% |
| C[C@]12CCc3sc(Nc4ccccc4)nc3C1=CC[C@@H]1[C@@H]2CC[C@]2(C)C(=O)CC[C@@H]12 [IIa.7, (1S,2R,13R,14S,18S)-7-anilino-2,18-dimethyl-6-thia-8-azapentacyclo[11.7.0.02,10.05,9.014,18]icosa-5(9),7,10-trien-17-one] | 43% | – | – | – |
